The text below walks through data of PMC8125762, “Molecular Regulation of Betulinic Acid on α3β4 Nicotinic Acetylcholine Receptors” (Molecules, 2021).

The target of assay [1] is T1, bovine α3β4 nicotinic acetylcholine receptors (Bos taurus, UniProt Q07263+Q8SPU6).
T1 construct: host or cells: Xenopus laevis oocytes injected with in vitro transcribed mRNA
Kind of assay: Two-electrode voltage clamp of ACh-induced inward current (IACh), wild-type α3β4 nAChRs expressed in Xenopus oocytes. The assay is classed as cell-based. The settings on record: for IC50: read-out: IC50 (half-maximal inhibitory response concentration). The method, then: (§1) Bovine cholinergic receptor nicotinic α3 subunit (gene accession number: 282702) and β4 subunit (gene accession number: 282181) were obtained from OriGene (Rockville, State Abbr. USA). All reagents, including ACh, MEC, and BA, were purchased from Sigma-Aldrich (St. Louis, MO, USA). All reagent stocks used in electrophysiological experiments were dissolved in dimethyl sulfoxide (DMSO) with the final concentration of DMSO not exceeding 0.01%. Frogs (Xenopus laevis) used in these experiments were obtained from the Korean Xenopus Resource Center for Research (KXRCR000001) and used according to appropriate standards.
(§2) All experiments were performed according to appropriate standards. After anesthetizing frogs on ice preoperatively, oocytes were extracted. Outer layers of oocytes were removed with OR-2 (Oocyte Ringer 2 solution) (82.5 mM NaCl, 2 mM KCl, 1 mM MgCl2, 5 mM HEPES, pH 7.4) containing collagenase II (2 mg/mL) in a room temperature shaker. Only stage V–VI oocytes were selected and used in this study. These oocytes were incubated in ND96 incubation buffer ([…] NaCl, 2 mM KCl, 1 mM MgCl2, 1.8 mM CaCl2, 5 mM HEPES, 2.5 mM sodium pyruvate, and […] gentamycin, pH 7.4) at 18 °C prior to mRNA injection.
(§3) Bovine α3β4 nAChRs cDNAs were restricted using appropriate restriction sites. Bovine α3β4 nAChRs mRNA was then subjected to in vitro transcription using a T7 polymerase kit (mMESSAGE mMACHINE T7 Transcription Kit; Thermo Fisher Scientific, Waltham, MA, USA) followed by injection into oocytes. A glass needle filled with mineral oil was used to install onto a nanoinjector (Drummond Scientific, Broomall, PA, USA). After incubating for 1–3 days, mRNA-injected oocytes were used for electrophysiology experiments.
Two-electrode voltage clamp (TEVC) experiments were performed using oocytes infused with α3β4 nAChR mRNA and cultured according to appropriate criteria. Each oocyte was penetrated with a microelectrode filled with 3M KCl at a resistance of 0.2 MΩ. All experiments were performed at room temperature using a two-electrode voltage clamp (OC-725C; Warner Instruments, Hamden, CT, USA) with a Digidata 1322A. The holding potential of the oocyte membrane potential was −80 mV. ACh and BA used in the experiment were diluted with ND96 buffer to appropriate concentrations. The perfusion rate was about 2 mL per minute. The induced-inward current was converted to digital data with the pClamp 10 software (Axon Instruments, Union City, CA, USA) for further analysis.
The current-voltage relationship was measured by changing the holding potential using a ramp protocol. Voltages ranging from −100 mV to +60 mV were applied to injected oocytes to measure the voltage ramp trace. The values were converted using Clampfit 9.0 (Molecular Devices, San Jose, CA, USA).
Concentration-response curve data were analyzed using SigmaPlot 10.0 software. Equation data were obtained using OriginPro 9.0 software (Origin, MA, USA) and fitted using the Hill equation y = Vmin + (Vmax − Vmin)*[x]^n/([IC50]^n + [x]^n), where Vmax and Vmin were the maximum and minimum current, respectively, x was the concentration of ACh or BA, n was the coefficient of interaction, and IC50 was the concentration of BA that produced half the maximum inhibitory effect. p-values < 0.05 were considered statistically significant.
In general terms: In two-electrode clamp one electrode senses voltage and the other passes current.

In assay [2] the target is T2, Wild α3 + β4 (I263A) nicotinic acetylcholine receptor (Bos taurus, UniProt Q07263+Q8SPU6, I284A).
T2 construct: host or cells: Xenopus laevis oocytes injected with mRNA; mutant made by site-directed mutagenesis
T2 sequence (Q07263 22-495, stated change not applied): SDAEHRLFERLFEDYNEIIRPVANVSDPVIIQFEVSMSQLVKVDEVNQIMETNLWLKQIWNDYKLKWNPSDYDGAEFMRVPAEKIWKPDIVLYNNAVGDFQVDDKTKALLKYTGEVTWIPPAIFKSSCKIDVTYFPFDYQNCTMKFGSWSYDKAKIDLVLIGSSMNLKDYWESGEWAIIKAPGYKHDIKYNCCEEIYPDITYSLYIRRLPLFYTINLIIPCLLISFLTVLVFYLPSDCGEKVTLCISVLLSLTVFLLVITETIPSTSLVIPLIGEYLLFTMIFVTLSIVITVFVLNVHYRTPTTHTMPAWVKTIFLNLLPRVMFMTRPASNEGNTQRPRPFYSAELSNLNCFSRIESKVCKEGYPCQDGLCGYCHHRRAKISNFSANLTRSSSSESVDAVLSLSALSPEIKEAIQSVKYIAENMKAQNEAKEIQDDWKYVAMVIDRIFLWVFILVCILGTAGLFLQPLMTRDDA
T2 sequence (Q8SPU6 20-496 I284A): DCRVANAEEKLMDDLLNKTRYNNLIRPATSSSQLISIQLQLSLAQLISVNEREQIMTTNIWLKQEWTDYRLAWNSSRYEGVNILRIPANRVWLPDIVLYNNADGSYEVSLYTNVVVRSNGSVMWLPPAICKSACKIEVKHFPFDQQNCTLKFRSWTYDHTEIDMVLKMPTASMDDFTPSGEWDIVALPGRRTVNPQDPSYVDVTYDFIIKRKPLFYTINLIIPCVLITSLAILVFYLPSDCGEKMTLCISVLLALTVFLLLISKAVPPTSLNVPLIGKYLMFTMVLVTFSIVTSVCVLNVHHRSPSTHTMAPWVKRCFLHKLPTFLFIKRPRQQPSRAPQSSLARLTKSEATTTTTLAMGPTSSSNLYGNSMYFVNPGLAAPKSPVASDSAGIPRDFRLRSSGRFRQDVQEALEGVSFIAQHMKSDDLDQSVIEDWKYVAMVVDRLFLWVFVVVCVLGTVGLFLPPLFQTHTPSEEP
Description: Two-electrode voltage clamp, single-mutant wild α3 + β4 (I263A) nAChR in Xenopus oocytes. The assay is classed as cell-based, bovine. The settings on record: 100 μM ACh, holding potential −80 mV. The method, then:
as §1, §2, §3
(§4) Using α3 and β4 subunit cDNAs, point mutation was performed by PCR with Pfu DNA polymerase (Quikchange II Site-Directed Mutagenesis Kit). After designing a chimeric primer for mutation, optimal PCR conditions were determined. DpnI was added to remove methylated cDNA. […]
(§5) Concentration-response curve data were analyzed using SigmaPlot 10.0 software. […]

The target in assay [3] is T3, α3 (L257A) + Wild β4 nicotinic acetylcholine receptor (Bos taurus, UniProt Q07263+Q8SPU6, L278A).
T3 construct: host or cells: Xenopus laevis oocytes injected with mRNA; mutant made by site-directed mutagenesis
T3 sequence (Q07263 22-495 L278A): as the sequence (Q07263 22-495, stated change not applied) above, with L257A counted along it
T3 sequence (Q8SPU6 20-496, stated change not applied): as the sequence (Q8SPU6 20-496 I284A) above, with A265I counted along it
Kind of assay: Two-electrode voltage clamp, single-mutant α3 (L257A) + wild β4 nAChR in Xenopus oocytes. The format is cell-based, bovine. The settings on record: 100 μM ACh, holding potential −80 mV. As to the method:
as §1, §2, §3, §4, §5

Assay [4] addresses T4, α3 (L257A) + β4 (I263A) nicotinic acetylcholine receptor (Bos taurus, UniProt Q07263+Q8SPU6, I284A/L278A).
T4 construct: host or cells: Xenopus laevis oocytes injected with mRNA; mutants made by site-directed mutagenesis
Kind of assay: Two-electrode voltage clamp, double-mutant α3 (L257A) + β4 (I263A) nAChR in Xenopus oocytes. The assay is classed as cell-based, bovine. The settings on record: 100 μM ACh, holding potential −80 mV. The method, then:
as §1, §2, §3, §4, §5

Where [5] appears, read: wild-type, co-applied with 100 μM ACh, holding potential −80 mV.

SMILES strings stand for the structures. “And” between values parts separate entries of the source, which are not always exact repeats. Equal entries are not always repeated.

T4 sequence (Q07263 22-495 L278A): as the sequence (Q07263 22-495, stated change not applied) above, with L257A counted along it
T4 sequence (Q8SPU6 20-496 I284A): as the sequence (Q8SPU6 20-496 I284A) above
T1 sequence (Q07263 22-495): as the sequence (Q07263 22-495, stated change not applied) above
T1 sequence (Q8SPU6 20-496): as the sequence (Q8SPU6 20-496 I284A) above, with A265I counted along it

A word on the EC50: it is the midpoint of the concentration-response curve. Low values mean greater potency, high ones weaker potency. As usually defined, the Emax is the size of the effect at its maximum, as opposed to the concentration needed. `CC(=O)OCC[N+](C)(C)C` [ACh, acetylcholine]: the concentration giving a half-maximal response (EC50) in assay [1] (in the absence of BA, holding potential −80 mV) was found to be 9.4 ± 1.25 µM. In assay [1] (read-out: maximum efficacy of ACh-induced inward current (Emax)), the Emax amounted to 101 ± 1.47%.
Regarding `C=C(C)[C@@H]1CC[C@]2(C(=O)O)CC[C@]3(C)[C@H](CC[C@@H]4[C@@]5(C)CC[C@H](O)C(C)(C)[C@@H]5CC[C@]43C)[C@@H]12` [BA, 3β, hydroxy-lup-20 (29) -en-28-oic acid], in assay [2], the IC50 is ~13.4 µM and 13.4 µM; the Imax came out at 33.1 ± 3.3%; the “nH (Hill coefficient)” value is on record as 2.7 ± 1.0. Besides, in assay [1] (10 μM BA compared to 0 μM BA), the “decrease of efficacy of acetylcholine-induced inward current” value was “about 60%”. In assay [1] (ACh 100 μM and BA co-administered, voltage ramp −100 to +60 mV), the “reversible potential (current-voltage relationship)” value is reported as “about −10 mV”. Moreover, the reversibility of inhibition result in assay [1] (ACh added again after BA co-administration) was “reversible”. Further, the “inhibition percentage of nAChRs” value in assay [1] (BA 100 μM co-applied with 100 μM ACh, holding potential −80 mV) is 89.2 ± 8.2%. Moreover, the “manner of inhibition versus ACh” value in assay [1] (different ACh concentrations with fixed BA 3 μM or 10 μM) is “non-competitive”. Further, in assay [1] (setting [5]), the “Hill coefficient (nH)” value was 0.9 ± 0.1; the Imax was 101.59 ± 5.98% and 101.5 ± 5.9%; the IC50 is 12.9 µM and 12.8 µM. For the same compound, in assay [3], the IC50 was determined as 18.6 µM, the Imax worked out at 48.9 ± 2.7% and the “nH (Hill coefficient)” value is 1.6 ± 0.1. For the same compound, in assay [4], the IC50 was around 26.2 µM, the Imax amounted to 7.4% and the “nH (Hill coefficient)” value was found to be 2.
One may read the inhibition as the percentage by which the read-out fell short of the control. For the compound `CNC1(C)C2CCC(C2)C1(C)C` (stereo not shown) [MEC, mecamylamine, reference compound], the inhibition at 10 µM in assay [1] (MEC 10 μM added at the same time as 100 μM ACh, holding potential −80 mV, read-out: inhibition of IACh (acetylcholine-induced inward peak current)) is around 100%. In addition, in assay [1] (setting [5]), the “Hill coefficient (nH)” value is listed as 1.5 ± 0.1 and the IC50 is 1.5 µM.
